Reference: patent US20230203029A1 (priority 2020, published 2023)

Assays:
[1] = biological target: T1, human MERTK cytoplasmic domain (Homo sapiens, UniProt Q12866); assay: biochemical; conditions: 30 uM ATP; read-out: Assay 1a Mer IC50 30 uM ATP
T1 construct: human MERTK cytoplasmic domain (Carna Biosciences 08-108); purchased Carna Biosciences 08-108
Experimental: Assay 1a—MERTK HTRF KinEASE-TK Assay
The enzymatic reaction was carried out for 30 min at room temperature. 10 μL TK Antibody-Cryptate/Streptavidin-XL665 (Cisbio 610SAXLG) was then added for 60 min, including EDTA containing detection buffer (Cisbio 62SDBRDF) to stop the reaction.

[2] = biological target: T2, Ba/F3 Pro B-cell line expressing TEL-human Tyro3 fusion domain (Homo sapiens, UniProt Q06418); assay type: cell-based; conditions: cell survival, 48 h, CellTiter-Glo
T2 sequence (Q06418 518-790 limits assumed): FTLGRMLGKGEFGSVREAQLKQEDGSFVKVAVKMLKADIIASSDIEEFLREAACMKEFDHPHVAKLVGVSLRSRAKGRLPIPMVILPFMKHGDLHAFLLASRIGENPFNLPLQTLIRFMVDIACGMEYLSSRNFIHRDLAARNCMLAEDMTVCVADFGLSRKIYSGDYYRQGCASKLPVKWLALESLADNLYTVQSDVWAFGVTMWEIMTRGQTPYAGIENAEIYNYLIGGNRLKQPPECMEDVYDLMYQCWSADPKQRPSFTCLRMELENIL
Experimental: (§1) Assay 5—Ba/F3 Cell Survival Assays.
(§2) The inhibitory potencies of compounds were assessed in a Ba/F3 cell survival assay, using the Ba/F3 Pro B-cell line, recombinantly expressing a BCR-human AXL kinase domain fusion protein (pACD320/AXL, Advanced Cellular Dynamics Inc), TEL-human MERTK fusion domain (pACD1000/MERTK, Advanced Cellular Dynamics Inc), TEL-human Tyro3 fusion domain (pACD1000/TYRO3, Advanced Cellular Dynamics Inc), or control TEL-none (ACD320, Advanced Cellular Dynamics Inc) BRC-none constructs (ACD1000, Advanced Cellular Dynamics Inc). 10 ng/mL recombinant murine IL3 (R&D, 403-ML-010) was included in the media when propagating negative control TEL-none or BCR-none lines only. Cells were maintained in RMPI 1640 (Corning 15-040-CV) culture media containing 10% heat inactivated semi-synthetic FBS (RMBIO FGR-BBT), 2 mM L-Glutamine (Sigma, G7513), 100 IU/mL Penicillin-10 mg/mL Streptomycin (Sigma, P4333), and 500 ng/mL Puromycin (Sigma, P8833). Experiments were performed in 50 μl growth media, including the test compounds of interest, and dispensing 5000 cells/well in logarithmic-phase growth into a 384 well white Optiplate (Perkin Elmer 6007299). […] The final assay DMSO concentration was 0.25%. Compound incubations were conducted for 48 h at 37° C./5% CO2, after which cell plate was equilibrated at room temperature for 20 minutes prior to assessing viability. 15 μl of Promega CellTiter-Glo reagent (G7572) was added to each well for 2 min on an orbital shaker to induce cell lysis.
(§3) The plate was then equilibrated for 5 min at room temperature and luminescence read on a BMG Pherastar FSX using the LUM plus optic module. Data were normalised to measurements in the absence of competing compound (0% inhibition). Competition curves were then fit to a 4 parameter logistic equation including a variable slope factor to determine the IC50 (compound concentration causing a half-maximal inhibition of cell survival).

[3] = biological target: T3, Ba/F3 Pro B-cell line expressing TEL-human MERTK fusion domain (Homo sapiens, UniProt Q12866); assay type: cell-based; conditions: cell survival, 48 h, CellTiter-Glo; read-out: TEL-MERTK Ba/F3 IC50
T3 sequence (Q12866 587-858 limits assumed): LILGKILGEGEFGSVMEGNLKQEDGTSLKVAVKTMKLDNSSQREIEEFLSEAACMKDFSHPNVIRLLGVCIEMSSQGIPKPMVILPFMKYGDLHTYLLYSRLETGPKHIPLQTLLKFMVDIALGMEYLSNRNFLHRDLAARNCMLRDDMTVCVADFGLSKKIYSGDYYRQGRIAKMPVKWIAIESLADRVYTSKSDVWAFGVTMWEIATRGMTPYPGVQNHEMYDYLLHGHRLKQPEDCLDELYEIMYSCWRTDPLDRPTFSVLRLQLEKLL
Experimental: as §1
as §2, with “only.” for “only. Cells were maintained in RMPI 1640 (Corning 15-040-CV) culture media containing 10% heat inactivated semi-synthetic FBS (RMBIO FGR-BBT), 2 mM L-Glutamine (Sigma, G7513), 100 IU/mL Penicillin-10 mg/mL Streptomycin (Sigma, P4333), and 500 ng/mL Puromycin (Sigma, P8833). Experiments were performed in 50 μl growth media, including the test compounds of interest, and dispensing 5000 cells/well in logarithmic-phase growth into a 384 well white Optiplate (Perkin Elmer 6007299).”
as §3, with “Data were normalised to measurements in the absence of competing compound (0% inhibition).” left out

[4] = biological target: T4, human AXL cytoplasmic domain (Homo sapiens, UniProt P30530); assay: Assay 1b AXL HTRF KinEASE-TK assay; assay type: biochemical
T4 construct: human AXL cytoplasmic domain (Thermo Fisher A31515); purchased Thermo Fisher A31515
T4 sequence (P30530 473-894 limits assumed): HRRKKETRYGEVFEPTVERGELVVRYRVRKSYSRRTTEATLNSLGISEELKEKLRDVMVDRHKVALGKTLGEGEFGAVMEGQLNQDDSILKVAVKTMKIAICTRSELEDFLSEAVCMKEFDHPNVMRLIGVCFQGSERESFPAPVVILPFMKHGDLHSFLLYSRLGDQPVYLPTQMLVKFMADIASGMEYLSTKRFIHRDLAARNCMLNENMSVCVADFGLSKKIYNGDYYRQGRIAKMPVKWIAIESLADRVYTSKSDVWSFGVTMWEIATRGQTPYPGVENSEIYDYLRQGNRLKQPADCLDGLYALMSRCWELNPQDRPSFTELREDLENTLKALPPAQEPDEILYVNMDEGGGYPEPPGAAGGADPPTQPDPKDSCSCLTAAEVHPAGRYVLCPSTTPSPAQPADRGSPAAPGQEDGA
Experimental: Assay 1b—AXL HTRF KinEASE-TK Assay
Compound inhibition of human AXL cytoplasmic domain (Thermo Fisher A31515) enzymatic activity was tested via the HTRF KinEASE-tyrosine kinase (TK) kit (Cisbio 62TK0PEC). Experiments were performed in 20 μl enzymatic buffer (Cisbio 62EZBFDD) supplemented with 5 mM MgCl2, 1 mM MnCl2, 1 mM DTT, 50 nM SEB (Cisbio, 61SEBALB), with 5 nM of AXL and the test compounds of interest. […] The enzymatic reaction was carried out for 30 min at room temperature. 10 μL TK Antibody-Cryptate/Streptavidin-XL665 (Cisbio 610SAXLG) was then added for 60 min, including EDTA containing detection buffer (Cisbio 62SDBRDF) to stop the reaction. The plate was read on a BMG Pherastar FSX using a HTRF 337/620/665 optical module to excite the terbium donor at 337 nm, and record donor emission at 620 nm and acceptor fluorophore emission at 665 nm. From this the FRET ratio (acceptor 665 nm/donor 620 nm) for each data point was calculated. […] Competition curves were then fit to a 4 parameter logistic equation including a variable slope factor to determine the IC50 (compound concentration that inhibits 50% of AXL activity).

T1 sequence (Q12866 527-999): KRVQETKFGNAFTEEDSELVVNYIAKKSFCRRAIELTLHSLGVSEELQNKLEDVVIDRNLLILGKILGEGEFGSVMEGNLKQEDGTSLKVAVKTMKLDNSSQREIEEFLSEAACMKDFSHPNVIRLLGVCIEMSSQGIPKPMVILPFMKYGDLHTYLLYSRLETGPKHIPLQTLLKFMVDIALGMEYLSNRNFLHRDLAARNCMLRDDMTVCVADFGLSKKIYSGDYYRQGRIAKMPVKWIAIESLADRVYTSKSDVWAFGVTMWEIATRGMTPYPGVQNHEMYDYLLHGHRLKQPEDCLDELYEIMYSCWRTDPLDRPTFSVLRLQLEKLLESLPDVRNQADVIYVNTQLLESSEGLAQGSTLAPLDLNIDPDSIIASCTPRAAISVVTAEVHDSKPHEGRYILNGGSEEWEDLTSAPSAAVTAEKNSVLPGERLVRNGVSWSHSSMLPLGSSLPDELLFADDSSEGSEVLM

| Compound | IC50 [1] [nM] | IC50 [2] [nM] | IC50 [3] [nM] | IC50 [4] [nM] |
| --- | --- | --- | --- | --- |
| O=C(Nc1ccc(Nc2ccnc3cnc(C(=O)N4CCC4)cc23)cc1)c1cccn(-c2ccccc2)c1=O [Example 5.4, N-[4-[[6-(azetidine-1-carbonyl)-1,7-naphthyridin-4-yl]amino]phenyl]-2-oxo-1-phenyl-pyridine-3-carboxamide] | 535 | – | – | – |
| CC(C)n1cc(C(=O)Nc2ccc(Nc3ccnc4cnc(C(=O)NOCCO)cc34)cc2)c(=O)n(-c2ccc(F)cc2)c1=O [Example 7, 4-[4-[[3-(4-fluorophenyl)-1-isopropyl-2,4-dioxo-pyrimidine-5-carbonyl]amino]anilino]-N-(2-hydroxyethoxy)-1,7-naphthyridine-6-carboxamide] | 392 | – | – | – |
| CC(C)n1cc(C(=O)Nc2ccc(Nc3ccnc4cnc(C(=O)NCCN(C)C)cc34)cc2)c(=O)n(-c2ccc(F)cc2)c1=O [Example 7.1, N-[2-(dimethylamino)ethyl]-4-[4-[[3-(4-fluorophenyl)-1-isopropyl-2,4-dioxo-pyrimidine-5-carbonyl]amino]anilino]-1,7-naphthyridine-6-carboxamide] | 54 | – | – | – |
| CN1CCC(NC(=O)c2cc3c(Oc4ccc(NC(=O)c5cccn(-c6ccccn6)c5=O)cc4)ccnc3cn2)CC1 [Example 8, N-(1-methyl-4-piperidyl)-4-[4-[[2-oxo-1-(2-pyridyl)pyridine-3-carbonyl]amino]phenoxy]-1,7-naphthyridine-6-carboxamide] | 154 | – | – | – |
| Cc1c(C(=O)Nc2ccc(Oc3ccnc4cnc(C(=O)NC5CCN(C)CC5)cc34)cc2)c(=O)n(-c2ccccc2)n1C [Example 8.3, 4-[4-[(1,5-Dimethyl-3-oxo-2-phenyl-pyrazole-4-carbonyl)amino]phenoxy]-N-(1-methyl-4-piperidyl)-1,7-naphthyridine-6-carboxamide] | 133 | – | – | – |
| Cc1c(C(=O)Nc2ccc(Oc3ccnc4cnc(C(=O)NC5CCN(C)CC5)cc34)cc2)c(=O)n(-c2ccccc2)n1CC(C)(C)O [Example 8.4, 4-[4-[[1-(2-hydroxy-2-methyl-propyl)-5-methyl-3-oxo-2-phenyl-pyrazole-4-carbonyl]amino]phenoxy]-N-(1-methyl-4-piperidyl)-1,7-naphthyridine-6-carboxamide] | 245 | – | – | – |
| CN1CCN(c2cc3c(Oc4ccc(NC(=O)c5cccn(-c6ccc(F)cc6)c5=O)nc4)ccnc3cn2)CC1 [Example 10.1, 1-(4-fluorophenyl)-N-[5-[[6-(4-methylpiperazin-1-yl)-1,7-naphthyridin-4-yl]oxy]-2-pyridyl]-2-oxo-pyridine-3-carboxamide] | 6 | 119 | 16 | 14 |
| O=C(Nc1ccc(Oc2ccnc3cnc(N4CCNCC4)cc23)cc1)c1cccn(-c2ccccn2)c1=O [Example 12.1, 2-oxo-N-[4-[(6-piperazin-1-yl-1,7-naphthyridin-4-yl)oxy]phenyl]-1-(2-pyridyl)pyridine-3-carboxamide] | 722 | – | – | – |
| O=C(Nc1ccc(Oc2ccnc3cnc(N4CCNCC4)cc23)cc1)c1c[nH]cc(-c2ccc(F)cc2)c1=O [Example 12.7, 5-(4-fluorophenyl)-4-oxo-N-[4-[(6-piperazin-1-yl-1,7-naphthyridin-4-yl)oxy]phenyl]-1H-pyridine-3-carboxamide] | 16 | – | – | 36 |
| Cc1c(C(=O)Nc2ccc(Oc3ccnc4cnc(N5CCNCC5)cc34)cc2)c(=O)n(-c2ccccc2)n1C [Example 12.8, 1,5-dimethyl-3-oxo-2-phenyl-N-[4-[(6-piperazin-1-yl-1,7-naphthyridin-4-yl)oxy]phenyl]pyrazole-4-carboxamide] | 134 | – | – | – |
| O=C(Nc1ccc(Oc2ccnc3cnc(C4CCN(C5COC5)CC4)cc23)cn1)c1cccn(-c2ccc(F)cc2)c1=O [Example 16.3, 1-(4-fluorophenyl)-N-[5-[[6-[1-(oxetan-3-yl)-4-piperidyl]-1,7-naphthyridin-4-yl]oxy]-2-pyridyl]-2-oxo-pyridine-3-carboxamide] | 1 | 271 | 14 | 3 |
| CN1CCC(NC(=O)c2cc3c(Oc4cnc(NC(=O)c5cccn(-c6ccc(F)cc6)c5=O)nc4)ccnc3cn2)CC1 [Example 19, 4-[2-[[1-(4-Fluorophenyl)-2-oxo-pyridine-3-carbonyl]amino]pyrimidin-5-yl]oxy-N-(1-methyl-4-piperidyl)-1,7-naphthyridine-6-carboxamide] | 137 | – | – | – |
| CC(C)n1cc(C(=O)Nc2ccc(Oc3ccnc4cnc(C5CCN(C)CC5)cc34)cn2)c(=O)n(-c2ccc(F)cc2)c1=O [Example 23.1, 3-(4-fluorophenyl)-1-isopropyl-N-[5-[[6-(1-methyl-4-piperidyl)-1,7-naphthyridin-4-yl]oxy]-2-pyridyl]-2,4-dioxo-pyrimidine-5-carboxamide] | 13 | 568 | 15 | – |
